Source: patent publication US12201610B2, “Compositions comprising aticaprant” (Janssen Pharmaceuticals, Inc., priority 2022, dated 2025)
Like-named read-outs stand apart in the source and are kept apart here.

How the values were obtained:
[1] = Phase 1 PK Part 2: relative bioavailability, dose proportionality, food effect of milled API tablet; type: in vivo, human; conditions: human, plasma, 10 mg
Method: This is a Phase 1, open-label, single dose, multicenter, 4-part study in healthy adult participants.
Potential participants will be screened from Day −28 to Day −2 to determine participants' eligibility for study participation. For Part 1, qualified participants will be admitted on Day −1 of each treatment period and will remain in-house for the total duration of the treatment (Day −1 until Day 5, with single-dose treatment on Day 1 and 96 hours of PK), whereas for Part 2, PK sampling will be done up to 120 hours (Day 6). Each dosed participant will have a safety follow-up on Day 10 to Day 14 after last dose of the study intervention.
The Part 2 of the study involves determination of relative bioavailability for tablet (Formulation Concept 2, i.e., milled (microfine) aticaprant formulation; see Table 10) and capsule formulations (see Example 6, study design, for description of capsule formulation) and dose proportionality and food effect for tablet formulation (Formulation Concept 2) in healthy adult participants (FIG. 26). Part 2 will consist of Subpart 2A and Subpart 2B consisting of a total of 4 periods. […] Participants will be assigned to 1 of 6 treatment sequences (Table 55) and will be administered the 3 treatments in a 3-way crossover. The same 24 participants who complete Subpart 2A will be enrolled in Subpart 2B. Subpart 2B consists of a fourth period to evaluate the food effect of a single dose of 10 mg aticaprant administered as 1×10 mg oral tablet (Formulation Concept 2) under fed conditions (Treatment H; Tables 54 and 56). A preliminary PK analysis will be conducted at the end of the food effect part (Subpart 2B) for all the periods from Part 2 and will include the food effect data.
For each individual participant, there will be a washout period of at least 7 days for Part 1 and at least 8 days for Part 2 between subsequent intakes of the study intervention. Day 1 of a treatment period (day of study intervention intake) is the first day of the washout period (also in between the study parts, if applicable).
Participants will be fasting in Part 1A and Part 2A. Participants will have been fed in Parts 1B and 2B. For a fasted condition, participants will fast (nothing to cat or drink except noncarbonated water) overnight for at least 10 hours before and until 4 hours after study intervention administration during each fasted treatment period. Approximately, 4 hours post-dose and after the 4-hour PK sampling, a standard lunch will be served at the study-site. Intake of water is allowed until 2 hours before the intake of the study intervention. Thereafter, water intake is only allowed for study intervention intake and for breakfast, if applicable. Drinking of water is allowed ad libitum from approximately 2 hours after dosing. For a fed condition, participants will consume, after an overnight fast (at least 10 hours), a standardized high-fat breakfast within a 20-minute period. […] Study intervention will be administered approximately 30 minutes after the start of the breakfast.
In Parts 1 and 2, plasma concentrations will be determined for aticaprant. Blood samples for determination of plasma concentrations of aticaprant will be collected predose and at the postdose time points starting on Day 1 as indicated in the Tables 57-58.
The following plasma PK parameters of aticaprant will be determined. A noncompartmental model with extravascular input will be used for the pharmacokinetic analysis.
Based on the individual concentration-time data, using the actual sampling times, the following PK parameters will be derived for aticaprant: […]

subjects with MDD = experiment: Treatment-emergent adverse events, full safety analysis set (Example 6); type: in vivo, human
[2] = TEAE in >= 5% of subjects, Treatment Period, Full Safety Analysis Set, aticaprant 10 mg (N = 85), Table 40
[3] = TEAE of Special Interest, Treatment Period, Full Safety Analysis Set, aticaprant 10 mg (N = 85), Table 41
[4] = Treatment Period, Full Safety Analysis Set, aticaprant 10 mg (N = 85)

Cc1cc(C)cc(C2CCCN2Cc2ccc(Oc3ccc(C(N)=O)cc3F)cc2)c1 (centres unmarked) [aticaprant, 3-fluoro-4-4-2-(3,5-dimethylphenyl)pyrrolidin-1-yl-methylphenoxybenzamide]
Cmax ([1]; oral, Relative BA, completers, Treatment F (Test): 1 × 10 mg Formulation Concept 2 (milled API tablet), fasting, read-out: Geometric Mean Cmax): 30.9 ng/mL | half-life ([1]; oral, Treatment F: 1 × 10 mg Formulation Concept 2 (milled API tablet), fasting, mean (SD)): 31 h | AUC(0-t) ([1]; oral, Treatment F: 1 × 10 mg Formulation Concept 2 (milled API tablet), fasting, mean (SD), read-out: AUClast): 297 ng·h/mL | AUC(0-inf) ([1]; oral, Treatment F: 1 × 10 mg Formulation Concept 2 (milled API tablet), fasting, mean (SD), read-out: AUC∞): 318 ng·h/mL | Tmax ([1]; oral, Treatment F: 1 × 10 mg Formulation Concept 2 (milled API tablet), fasting, median (range)): 1.5 h | half-life ([1]; oral, Treatment H: 1 × 10 mg Formulation Concept 2 (milled API tablet), after high-fat breakfast, mean): 30.8 h | AUC(0-t) ([1]; oral, Treatment H: 1 × 10 mg Formulation Concept 2 (milled API tablet), after high-fat breakfast, mean, read-out: AUClast): 388 ng·h/mL | AUC(0-inf) ([1]; oral, Treatment H: 1 × 10 mg Formulation Concept 2 (milled API tablet), after high-fat breakfast, mean, read-out: AUC∞): 388 ng·h/mL | Tmax ([1]; oral, Treatment H: 1 × 10 mg Formulation Concept 2 (milled API tablet), after high-fat breakfast, median): 2 h | AUC(0-t) ([1]; po, Relative BA, completers, Treatment E (Reference): 2 × 5 mg oral capsule, fasting, read-out: Geometric Mean AUClast): 291 ng·h/mL | AUC(0-inf) ([1]; po, Relative BA, completers, Treatment E (Reference): 2 × 5 mg oral capsule, fasting, read-out: Geometric Mean AUC∞): 297 ng·h/mL | Cmax ([1]; po, Relative BA, completers, Treatment E (Reference): 2 × 5 mg oral capsule, fasting, read-out: Geometric Mean Cmax): 30.2 ng/mL | half-life ([1]; po, Treatment E: 2 × 5 mg oral capsule, fasting, mean): 30.5 h | AUC(0-t) ([1]; po, Treatment E: 2 × 5 mg oral capsule, fasting, mean, read-out: AUClast): 308 ng·h/mL | AUC(0-inf) ([1]; po, Treatment E: 2 × 5 mg oral capsule, fasting, mean, read-out: AUC∞): 307 ng·h/mL | Cmax ([1]; po, Treatment E: 2 × 5 mg oral capsule, fasting, mean, read-out: Cmax): 31.7 ng/mL | Tmax ([1]; po, Treatment E: 2 × 5 mg oral capsule, fasting, median): 2 h | Diarrhea, % (subjects with MDD; [2]): 8% | Gastrointestinal Disorders, % (subjects with MDD; [2]): 14% | Headache, % (subjects with MDD; [2]): 12% | Infections And Infestations, % (subjects with MDD; [2]): 15% | Nasopharyngitis, % (subjects with MDD; [2]): 6% | Nervous System Disorders, % (subjects with MDD; [2]): 15% | Pruritus, % (subjects with MDD; [2]): 6% | Skin And Subcutaneous Tissue Disorders, % (subjects with MDD; [2]): 7% | Total no. Subjects with Adverse Events, % (subjects with MDD; [2]): 47% | Abdominal Pain, % (subjects with MDD; [3]): 1.2% | Diarrhea, % (subjects with MDD; [3]): 8.2% | Dyspepsia, % (subjects with MDD; [3]): 1.2% | Gastrointestinal Disorders, % (subjects with MDD; [3]): 10.6% | Pruritus, % (subjects with MDD; [3]): 5.9% | Skin And Subcutaneous Tissue Disorders, % (subjects with MDD; [3]): 5.9% | Total no. Subjects with Adverse Events of Special Interest, % (subjects with MDD; [3]): 15.3% | Subjects with TEAE leading to discontinuation of agent, % (subjects with MDD; [4]): (1.2) % | Total subjects affected by non-serious adverse events, % (subjects with MDD; [4]): (27.1%) | Subjects with 1 or more TEAE, % (subjects with MDD; Treatment Period, Full Safety Analysis Set, aticaprant 10 mg (N = 85), Table 39): (47.1) % | Subjects with drug-related TEAE, % (subjects with MDD; Treatment Period, Full Safety Analysis Set, aticaprant 10 mg (N = 85), possible, probable, very likely): (23.5) % | subjects who discontinued during the treatment period due to TEAEs (subjects with MDD; due to diarrhea, nausea, vomiting and headache): 1 subject | subjects with at least one TEAE during the treatment period (subjects with MDD; full safety analysis set, 40/85 subjects): 47.1% | patients with acute cholecystitis (subjects with MDD; treatment period): 0 patients | subjects with pruritus (TEAE of special interest) (subjects with MDD; treatment period, 5/85 subjects): 5.9% | subjects with diarrhea (TEAE) (subjects with MDD; treatment period, 7/85 subjects): 8.2% | subjects with headache (TEAE) (subjects with MDD; treatment period, 10/85 subjects): 11.8% | subjects with TEAEs of special interest (subjects with MDD; treatment period, 13/85 subjects): 15.3%
